Where no end group is shown, it is not given here.
System: fibrin gel
Assay: TG substrate viability: cross-linking into fibrin gel
Format: biochemical
Settings: in the presence of Ca2+
Procedure: TG Substrate Viability Assays. Viability was tested by: (1) cross-linking into fibrin gel, and (2) reacting with fibrinogen in the presence of Guinea pig liver TG. […] In the presence of Ca2+, cross-linked fibrin clots were formed.

Substance: peptide: TG substrate peptide NQEQVSP (SEQ ID NO:01) conjugated to FITC or HiLyte Fluor 750 via N-hydroxysuccinimide chemistry (also: FITC or HiLyte Fluor 750 conjugated via NHS chemistry)
- cross-linking into fibrin clot (fluorescence intensity): crosslinked into the fibrin clot

From US20090074672A1, “Tumor Boundary Imaging” (SRI International, priority 2007, published 2009)
